Measurements taken from US7435557B2 (priority 2002, dated 2008).

Assays:
[1] = test system: GTP cyclohydrolase II; experiment: GTP cyclohydrolase activity assay coupled to formate dehydrogenase (NADH formation, absorption at 340 nm); format: biochemical, Ashbya gossypii; conditions: cell free extract, 2.5 mM GTP, 0.5 mM NAD, 2 units/ml formate dehydrogenase; FIG. 1
Procedure: Ashbya gossypii cells may be obtained after 2 days from a culture in 3% (w/v) malt extract +0.3% (w/v) difco-soyton, pH 5.6 at 28° C. A cell-free extract can be obtained by mechanical breakage of the cells with a kitchen blender in 50 mM imidazole buffer pH 7 containing 1 mM EDTA-Na salt, 5 mM MgSO4, 10 mM KCl, 5 mM dithiothreitol and 30% (v/v) glycerol and separation of unbroken cells and debris by centrifugation.
(§1) The assay is performed in a suitable buffer e.g. Tris/HCl, pH 7.8 including 1 mM Mg.Cl2, 1 mM DTT, 0.5 mM NAD, 2 units/ml formate dehydrogenase and 2.5 mM GTP Li salt. After the addition of the GTP cyclohydrolase comprising cell free extracts of step A), the reaction was monitored by measuring the absorption at 340 nm.
After dissolving the respective candidate compounds in a suitable solvent e.g. DMSO, an aliquot of the afore made solution is added to the reaction mixture. The enzyme activity of this sample is compared with the activity of a control comprising the pure solvent instead of the candidate compound. The resulting relative activity was calculated as percent inhibition in relation to the sample without the candidate compound.
In FIG. 1, the GTP dependant formation of NADH in the reaction mixture and inhibition by 3-Butyl-10-(3-chlorophenyl)-10H-pyrimido[4,5-b]quinoline-2,4-dione is shown.

[2] = test system: formate dehydrogenase; experiment: Specificity control: substrate GTP replaced with formic acid; format: biochemical; conditions: formate instead of GTP; FIG. 2
Procedure: as §1
To distinguish between the inhibition of GTP cyclohydrolase and formate dehydrogenase in the above-mentioned assay, the subtrate GTP is replaced with formic acid.

[3] = test system: Pyricularia oryzae; format: cell-based; conditions: 125 ppm compound solution, 50 μl + 50 μl spore suspension, 18° C., 7 days, 405 nm
[4] = test system: Phytophthora infestans; format: cell-based; conditions: 125 ppm compound solution, 50 μl + 50 μl spore suspension, 18° C., 7 days, 405 nm
[5] = test system: Septoria tritici; format: cell-based; conditions: 18° C., 7 days; 405 nm

CCCCn1c(=O)nc2n(-c3cccc(Cl)c3)c3ccccc3cc-2c1=O [3-butyl-10-(3-chlorophenyl)-10H-pyrimido[4,5-b]quinoline-2,4-dione]
inhibition of GTP dependent formation of NADH [1]: inhibition
inhibition of formate dehydrogenase alone [2]: No inhibition
% growth compared with the 0 ppm control [3]: 47.6%
% growth compared with the 0 ppm control [4]: 39.9%
% growth compared with the 0 ppm control [5]: 0%
